A value given as a limit tells only on which side of the number the result lay.

The target of data set [1] is HIV-1 frameshift-inducing RNA stem-loop (SEQ ID NO:1). The data set is described as follows: Fluorescence titration of Cy-3 labeled HIV-1 RNA stem-loop. The class given is binding. Particulars: freshly prepared compound; read-out: KD, fluorescence titration with the HIV1 frameshift inducing stemloop. How it is done:
The binding of dicarba analogs to the HIV-1 frameshift-inducing RNA was measured using fluorescence spectroscopy. Fluorescence titrations were performed on a Varian Cary eclipse fluorescence spectrophotometer using 1 cm path-length quartz fluorescence cell. The solution of Cy-3 labeled HIV-1 RNA stem-loop in PBS buffer (400 μL, 400 nM) was taken in the cell and excited with a wavelength of 550 nm. A PMT voltage of 715 V was used for collecting the fluorescence data and the emission spectrum was collected from 555 to 600 nm wavelength range. The ligand solution in PBS buffer was added to the target RNA in the cell in either 2 or 4 μL increments and was allowed to equilibrate for 10 minutes before recording the emission spectrum. Statistical analysis of the data was carried out using Origin 7 (OriginLab corporation). Binding constants were determined by fitting the data to one-site binding model equation.
A 5′-Cy3 labeled upper stem-loop of HIV-1 RNA (SEQ ID NO:1) was titrated with increasing amount of the dicarba analogs in a phosphate buffer (PBS, pH 7.4) using the same protocol to that described in Example 3 above. The fluorescence intensity of the labeled RNA stem-loop decreased as a function of the ligand concentration. […] Normally, one would expect a greater difference between the affinities of the two isomers.
To further evaluate the binding selectivity of dicarba analogs to the frameshift-inducing stem-loop, fluorescence titrations were repeated in the presence of twenty-fold excess concentration of yeast tRNA. […] In an interesting result it was discovered that the monomeric compound (5) also bound to the HIV-1 RNA stem-loop with similar affinity as that of the other analogs, but the binding affinity was diminished in the presence of tRNA. […] Quinoline is a known intercalator of nucleotide bases and has the capability to interact with RNA non-specifically. But it is the peptidic part of the molecule in ligands 5-5 E and 5-5 Z that imparts specificity to the interaction between the ligand and the RNA stem-loop. The peptidic part on monomer 5 is insufficient to impart specificity to the interaction as evident from the results.

The format of data set [2] is physicochemical. How it is done:
The oxidation of 1-1 (FIG. 13, Scheme 2) to the disulfoxide was achieved by reacting 1-1 with H2O2 (1.1 eq.) and MoClO2 (0.05 eq) in 1:1 acetonitrile:water for 15 minutes, followed by purification by RP-HPLC (Jeyakumar et al., “Selective Oxidation of Sulfides to Sulfoxides and Sulfones at Room Temperature Using H2O2 and Mo(VI) Salt as Catalyst,” Tettrahedron Letters 47:4573-76 (2006), which is hereby incorporated by reference in its entirety).

The target of data set [3] is (CUG)109 RNA (SEQ ID NO:8)-MBNL1 protein interaction. The data set is described as follows: Enzyme Fragmentation Complementation (EFC) assay of (CUG)109-MBNL1 binding inhibition. In kind it is biochemical. The protocol: Small molecule-mediated inhibition of (CUG)109-MBNL1 binding was determined using an Enzyme Fragmentation Complementation (EFC) assay (Eglen et al., “β-Galactosidase Enzyme Fragment Complementation as A Novel Technology for High Throughput Screening,” Comb. Chem. High Throughput Screening 6:381-387 (2003), which is hereby incorporated by reference in its entirety). Briefly, this was performed by first immobilizing (CUG)109 RNA (SEQ ID NO:8) to a 96 well plate. Next, the immobilized RNA was incubated with recombinant MBNL1 fused to the PL enzyme donor peptide (PL-MBNL1, where “PL” is the commercial “ProLabel” enzyme donor peptide) (DiscoveRx PathHunter ProLabel Detection kit) in the presence of varying concentrations of small molecule inhibitor. The Enzyme Acceptor (EA-β-galactosidase) complement was then added, and the activity of the resulting plate—(CUG)109 bound (PL-MBNL1)-(EA-β-galactosidase) activity was monitored via a chemiluminsecent substrate. Only the EA-β-Gal bound to the PL-MBNL1 is capable of performing the luminescent reaction and, as such, any luminescence correlates to the amount of MBNL1 bound to the (CUG)109 immobilized on the plate. Wells lacking (CUG)109 RNA served as a background measure of non-specific luminescence and were subtracted from each experiment to yield a 0% bound value. Wells containing no small molecule inhibitor added served as 100% bound. […]

The target in data set [4] is variant (CUG) stem RNA (SEQ ID NO:9). The data set is described as follows: Fluorescence titration (FT), SEQ ID NO:9. In kind it is binding. How it is done:
(§1) To test specificity and to confirm the determined binding affinities, filter binding assays and fluorescence titrations were performed with SEQ ID NOS: 7-11 (Table 5), and the HIV-1 frameshift stimulating RNA hairpin used in preceding Examples (SEQ ID NO:1, Table 5). Fluorescence titrations were performed using a Varian Cary Eclipse spectrophotometer. 2 μl of 50 or 500 μM small molecule were titrated into 400 μl of FAM labeled RNA sequences an allowed to equilibrate for at least 10 minutes, or until no change in fluorescence spectra was observed. Changes in fluorescence emission at 518 nm (excitation at 490 nm) were measured. Raw data were corrected for dilution dependant changes, and Em518 was plotted against small molecule concentration and fit to the one site binding equation y=(bmaz*x)/(KD+x).) Competition experiments utilizing target RNA (SEQ ID NO:7) and a 20-fold molar excess of total yeast tRNA were performed to measure non-specific RNA binding (Luedtke et al., “RNA-Ligand Interactions: Affinity and Specificity of Aminoglycoside Dimers and Acridine Conjugates to the HIV-1 Rev Response Element,” Biochemistry 42:11391-11403 (2003), which is hereby incorporated by reference in its entirety). Compound 1-1, the HIV-1 RNA ligand, served as a negative control.

The target in data set [5] is (CUG)/(CAG) complimentary RNA (SEQ ID NO:10). The data set is described as follows: Fluorescence titration (FT), SEQ ID NO:10. The class given is binding. Also noted: key to KD: NC = Not Calculable.; NS = Not Saturatable. How it is done:
as §1

The target in data set [6] is variant (CUG) stem RNA (SEQ ID NO:9). The data set is described as follows: Filter binding assay (FBA), SEQ ID NO:9. How it is done: (§2) A filter binding assay system was utilized to provide a rapid initial assessment of binding affinity. All binding studies were performed in PBS pH 7.2+1 mM MgCl2 at 22° C. Various concentrations of small molecules were incubated with 10 nM FAM-labeled RNA in a total volume of 50 μl for 20 minutes. A slot blot apparatus was then assembled with a wet nitrocellulose filter, on top of a wet nylon filter, on top of filter paper. 40 μl of each binding mixture was then loaded into an individual well of the apparatus and allowed to penetrate the filters for 10 minutes. The peptidic disulfides selected from the DCL efficiently bind to the nitrocellulose filter. In contrast, the FAM-labeled RNA strands penetrate the nitrocellulose filter and are bound by the nylon filter. As such, RNA bound by the peptidic library members remains bound on the nitrocellulose filter, and unbound RNA passes to the nylon filter.
(§3) Densitometric analysis of the ratio of labeled RNA on the nitrocellulose to nylon filters allows quantification of binding (FIG. 15A). All binding isotherms were fit to the logistic binding model (Equation 1 above). The repetitive nature of the target sequences may in some cases result in binding stoichiometries that are more complex than a simple 1:1 interaction.
as §1

The target of data set [7] is (CUG) loop RNA (SEQ ID NO:11). The data set is described as follows: Filter binding assay (FBA), SEQ ID NO:11. How it is done:
as §2, §3, §1

Data set [8] has as its target (CUG)109 RNA (SEQ ID NO:8). The data set is described as follows: Filter binding assay (FBA), SEQ ID NO:8. How it is done:
as §2, §3

Data set [9] concerns the target HIV-1 frameshift stimulating RNA hairpin (SEQ ID NO:1). The data set is described as follows: Filter binding assay (FBA), SEQ ID NO:1. The protocol:
as §2, §3, §1

Data set [10] deals with (CUG)/(CAG) complimentary RNA (SEQ ID NO:10). The data set is described as follows: Filter binding assay (FBA), SEQ ID NO:10. How it is done: as §2, §3, §1
Data set [11] addresses (CUG) loop RNA (SEQ ID NO:11). The data set is described as follows: Fluorescence titration (FT), SEQ ID NO:11. In kind it is binding. Details: key: NC = Not Calculable.; NS = Not Saturatable. How it is done: as §1
In data set [12] the target is (CUG) repeat RNA SEQ ID NO:7. The data set is described as follows: Fluorescence titration (FT), SEQ ID NO:7. In kind it is binding. The protocol:
as §1

Data set [13] has as its target (CUG) repeat RNA SEQ ID NO:7. The data set is described as follows: Filter binding assay (FBA), SEQ ID NO:7. Particulars: FBA, read-out: KD. How it is done:
as §2, §3, §1

Take `CCc1nc2ccccc2cc1C(=O)N[C@@H](C[S+]([O-])[S+]([O-])C[C@H](NC(=O)c1cc2ccccc2nc1CC)C(=O)N1CCC[C@H]1C(=O)N[C@@H](Cc1ccccc1)C(=O)NCCCN)C(=O)N1CCC[C@H]1C(=O)N[C@@H](Cc1ccccc1)C(=O)NCCCN` (stereo partly drawn) [1-1 disulfoxide]: in [1], the Kd worked out at 0.41 µM. For the same compound, the degradation after synthesis result in data set [2] was “degraded within a few hours of synthesis”.
Consider `NCCCCC(NC(=O)C(CSSCC(NC(=O)C(CC(N)=O)NC(=O)c1ccc2c(c1)OCO2)C(=O)NC(CCCCN)C(=O)NCCCN)NC(=O)C(CC(N)=O)NC(=O)c1ccc2c(c1)OCO2)C(=O)NCCCN` (stereo not drawn) [dimer 6-6], for which the “Ki, inhibition of the (CUG)n MBNL1 interaction” value in [3] is “do not show any inhibitory effect”.
As for `CCc1nc2ccccc2cc1C(=O)N[C@@H](CC(N)=O)C(=O)N[C@@H](CSSC[C@H](NC(=O)[C@@H]1CCCN1C(=O)c1cc2ccccc2nc1CC)C(=O)N[C@@H](CCCCN)C(=O)NCCCN)C(=O)N[C@@H](CCCCN)C(=O)NCCCN` [dimer 7-9], the Kd in [4] turned out to be 1.6 µM; in data set [6], 6.4 ± 1 µM; in data set [7], 4.6 ± 0.1 µM; in data set [8], 2.1 µM; in data set [9] it was 22 ± 2 µM; in [10] it was 19.5 ± 1 µM. Further, the Kd in [12] (SEQ ID NO: 7) was determined as 2.1 µM; in data set [12] (SEQ ID NO: 7 + 20 x tRNA) it was 2.9 µM; in data set [13] (SEQ ID NO: 7 + 20 x tRNA), 10 ± 0.7 µM; in data set [13] (SEQ ID NO: 7), 4.5 ± 0.6 µM. Besides, the KD result in [5] and in [11] was “NC” in each case.
Consider `NCCCC[C@H](NC(=O)[C@H](CSSC[C@H](NC(=O)[C@@H]1CCCN1C(=O)c1ccc2c(c1)OCO2)C(=O)N[C@@H](CCCCN)C(=O)NCCCN)NC(=O)[C@@H]1CCCN1C(=O)c1ccc2c(c1)OCO2)C(=O)NCCCN` [dimer 8-8], for which the Kd in data set [4] was 2.1 µM; in data set [6], 9.3 ± 0.4 µM; in data set [7], 7.5 ± 0.9 µM; in [8] it was 2.5 µM; in data set [9], 41 ± 9 µM; in data set [10] it was 21 ± 1.4 µM. Further, the Kd in [12] (SEQ ID NO: 7) was 1.4 µM; in data set [12] (SEQ ID NO: 7 + 20 x tRNA), 2.4 µM; in [13] (SEQ ID NO: 7 + 20 x tRNA), 14 ± 4 µM; in data set [13] (SEQ ID NO: 7) it was 5.4 ± 0.6 µM. In addition, the KD result in [5] and in data set [11] was “NC” throughout.
With `CCc1nc2ccccc2cc1C(=O)N1CCC[C@H]1C(=O)N[C@@H](CSSC[C@H](NC(=O)[C@@H]1CCCN1C(=O)c1ccc2c(c1)OCO2)C(=O)N[C@@H](CCCCN)C(=O)NCCCN)C(=O)N[C@@H](CCCCN)C(=O)NCCCN` [dimer 8-9], the Kd came out at 2.6 µM in data set [4]; 4.7 ± 0.1 µM in [6]; 6 ± 0.1 µM in [7]; 1.9 µM in [8]; 16 ± 4 µM in data set [9]; 21 ± 1.8 µM in data set [10]. The Kd was 2.1 µM in [12] (SEQ ID NO: 7), 4.2 µM in [12] (SEQ ID NO: 7 + 20 x tRNA), 9.6 ± 0.7 µM in [13] (SEQ ID NO: 7 + 20 x tRNA) and 4.1 ± 0.2 µM in [13] (SEQ ID NO: 7). For the same compound, the KD result in [5] and in data set [11] was “NC” each time.
In the case of `CCc1nc2ccccc2cc1C(=O)N1CCC[C@H]1C(=O)N[C@@H](CSSC[C@H](NC(=O)[C@@H]1CCCN1C(=O)c1cc2ccccc2nc1CC)C(=O)N[C@@H](CCCCN)C(=O)NCCCN)C(=O)N[C@@H](CCCCN)C(=O)NCCCN` [dimer 9-9], the Kd was 1.7 µM in data set [4]; 17 µM in [5]; 7.1 ± 1.1 µM in data set [6]; 8.5 ± 0.1 µM in data set [7]; 2.1 µM in data set [8]; 24 ± 5 µM in [9]. Besides, the Kd in data set [10] was > 40 µM; in data set [12] (SEQ ID NO: 7), 2.2 µM; in data set [12] (SEQ ID NO: 7 + 20 x tRNA) it was 3.4 µM; in [13] (SEQ ID NO: 7 + 20 x tRNA), 18 ± 2.1 µM; in [13] (SEQ ID NO: 7), 6.7 ± 0.2 µM. For the same compound, the KD result in data set [11] is “NS”.
